# Activity calls are given as the source filed them. The calls are words filed in the database; no cut-off is given here.
# Columns and labels:
# [1] = test system: Mus musculus; experiment: Anticonvulsant activity in Swiss albino mouse assessed as maximal electroshock-induced seizures at 390 umol/kg, ip administered 30 mins before electroshock challenge; assay type: functional, organism-based
# [2] = test system: Mus musculus; experiment: Anticonvulsant activity in Swiss albino mouse assessed as protection against subcutaneous pentylenetetrazol-induced seizures at 390 umol/kg, ip administered 30 mins before pentylenetetrazole challenge measured after 30 mins relative to stiripentol; assay type: functional
# [3] = test system: Mus musculus; experiment: Anticonvulsant activity in Swiss albino mouse assessed as protection against subcutaneous pentylenetetrazol-induced seizures at 390 umol/kg, ip administered 30 mins before pentylenetetrazole challenge measured after 30 mins; assay type: functional
# [4] = test system: Mus musculus; experiment: Anticonvulsant activity in Swiss albino mouse assessed as protection against subcutaneous pentylenetetrazol-induced seizures at 108 umol/kg, ip administered 30 mins before pentylenetetrazole challenge measured after 30 mins; assay type: functional
# [5] = test system: Mus musculus; experiment: Anticonvulsant activity in Swiss albino mouse assessed as protection against subcutaneous pentylenetetrazol-induced seizures at 747 umol/kg, ip administered 30 mins before pentylenetetrazole challenge measured after 30 mins; assay type: functional
# [6] = test system: Mus musculus; experiment: Anticonvulsant activity in Swiss albino mouse assessed as protection against subcutaneous pentylenetetrazol-induced seizures at 491 umol/kg, ip administered 30 mins before pentylenetetrazole challenge measured after 30 mins; assay type: functional
# [7] = test system: Mus musculus; experiment: Anticonvulsant activity in Swiss albino mouse assessed as protection against subcutaneous pentylenetetrazol-induced seizures at 534 umol/kg, ip administered 30 mins before pentylenetetrazole challenge measured after 30 mins; assay type: functional
# [8] = test system: Mus musculus; experiment: Anticonvulsant activity in ip dosed Swiss albino mouse assessed as protection against subcutaneous pentylenetetrazol-induced seizures administered 30 mins before pentylenetetrazole challenge measured after 30 mins; assay type: functional
# [9] = test system: Mus musculus; experiment: Neurotoxicity in Swiss albino mouse assessed as climbing response to inverted mesh at 747 umol/kg, sc administered measured every 15 mins for 2 hrs by wire mesh grasping test; assay type: toxicity, organism-based; settings: in vivo
# [10] = test system: Mus musculus; experiment: Neurotoxicity in Swiss albino mouse assessed as effect on hindlimb grip strength at 747 umol/kg, sc administered measured every 15 mins for 2 hrs; assay type: toxicity, organism-based; settings: in vivo
# [11] = test system: Mus musculus; experiment: Anticonvulsant activity in Swiss albino mouse assessed as protection against subcutaneous pentylenetetrazol-induced seizures at 576 umol/kg, ip administered 30 mins before pentylenetetrazole challenge measured after 30 mins; assay type: functional
# [12] = test system: Mus musculus; experiment: Anticonvulsant activity in Swiss albino mouse assessed as maximal electroshock-induced seizures at 640 umol/kg, ip administered 30 mins before electroshock challenge; assay type: functional
# [13] = test system: Mus musculus; experiment: Anticonvulsant activity in Swiss albino mouse assessed as protection against subcutaneous pentylenetetrazol-induced seizures at 640 umol/kg, ip administered 30 mins before pentylenetetrazole challenge measured after 30 mins; assay type: functional
# [14] = test system: Mus musculus; experiment: Anticonvulsant activity in Swiss albino mouse assessed as protection against subcutaneous pentylenetetrazol-induced seizures at 427 umol/kg, ip administered 30 mins before pentylenetetrazole challenge measured after 30 mins; assay type: functional
# [15] = test system: Mus musculus; experiment: Anticonvulsant activity in Swiss albino mouse assessed as protection against subcutaneous pentylenetetrazol-induced seizures at 384 umol/kg, ip administered 30 mins before pentylenetetrazole challenge measured after 30 mins; assay type: functional
# [16] = test system: Mus musculus; experiment: Anticonvulsant activity in ip dosed Swiss albino mouse assessed as maximal electroshock-induced seizures administered 30 mins before electroshock challenge; assay type: functional
# [17] = test system: Mus musculus; experiment: Anticonvulsant activity in Swiss albino mouse assessed as maximal electroshock-induced seizures at 340 umol/kg, ip administered 30 mins before electroshock challenge; assay type: functional
# [18] = test system: Mus musculus; experiment: Anticonvulsant activity in Swiss albino mouse assessed as protection against subcutaneous pentylenetetrazol-induced seizures at 340 umol/kg, ip administered 30 mins before pentylenetetrazole challenge measured after 30 mins; assay type: functional
# [19] = test system: Mus musculus; experiment: Anticonvulsant activity in Swiss albino mouse assessed as protection against subcutaneous pentylenetetrazol-induced seizures at 340 umol/kg, ip administered 30 mins before pentylenetetrazole challenge measured after 30 mins relative to stiripentol; assay type: functional
# [20] = test system: Mus musculus; experiment: Anticonvulsant activity in Swiss albino mouse assessed as protection against subcutaneous pentylenetetrazol-induced seizures at 159 umol/kg, ip administered 30 mins before pentylenetetrazole challenge measured after 30 mins; assay type: functional, organism-based
# [21] = test system: Mus musculus; experiment: Anticonvulsant activity in Swiss albino mouse assessed as maximal electroshock-induced seizures at 159 umol/kg, ip administered 30 mins before electroshock challenge; assay type: functional
# [22] = test system: Mus musculus; experiment: Anticonvulsant activity in Swiss albino mouse assessed as protection against subcutaneous pentylenetetrazol-induced seizures at 330 umol/kg, ip administered 30 mins before pentylenetetrazole challenge measured after 30 mins relative to stiripentol; assay type: functional
# [23] = test system: Mus musculus; experiment: Anticonvulsant activity in Swiss albino mouse assessed as maximal electroshock-induced seizures at 330 umol/kg, ip administered 30 mins before electroshock challenge; assay type: functional
# [24] = test system: Mus musculus; experiment: Anticonvulsant activity in Swiss albino mouse assessed as protection against subcutaneous pentylenetetrazol-induced seizures at 330 umol/kg, ip administered 30 mins before pentylenetetrazole challenge measured after 30 mins; assay type: functional
# [25] = test system: Mus musculus; experiment: Anticonvulsant activity in Swiss albino mouse assessed as protection against subcutaneous pentylenetetrazol-induced seizures at 410 umol/kg, ip administered 30 mins before pentylenetetrazole challenge measured after 30 mins relative to stiripentol; assay type: functional
# [26] = test system: Mus musculus; experiment: Anticonvulsant activity in Swiss albino mouse assessed as protection against subcutaneous pentylenetetrazol-induced seizures at 410 umol/kg, ip administered 30 mins before pentylenetetrazole challenge measured after 30 mins; assay type: functional
# [27] = test system: Mus musculus; experiment: Anticonvulsant activity in Swiss albino mouse assessed as maximal electroshock-induced seizures at 410 umol/kg, ip administered 30 mins before electroshock challenge; assay type: functional
# [28] = test system: Mus musculus; experiment: Anticonvulsant activity in Swiss albino mouse assessed as protection against subcutaneous pentylenetetrazol-induced seizures at 346 umol/kg, ip administered 30 mins before pentylenetetrazole challenge measured after 30 mins; assay type: functional
# [29] = test system: Mus musculus; experiment: Anticonvulsant activity in Swiss albino mouse assessed as maximal electroshock-induced seizures at 346 umol/kg, ip administered 30 mins before electroshock challenge; assay type: functional
# [30] = test system: Mus musculus; experiment: Anticonvulsant activity in Swiss albino mouse assessed as protection against subcutaneous pentylenetetrazol-induced seizures at 346 umol/kg, ip administered 30 mins before pentylenetetrazole challenge measured after 30 mins relative to stiripentol; assay type: functional
# [31] = test system: Mus musculus; experiment: Anticonvulsant activity in Swiss albino mouse assessed as protection against subcutaneous pentylenetetrazol-induced seizures at 350 umol/kg, ip administered 30 mins before pentylenetetrazole challenge measured after 30 mins relative to stiripentol; assay type: functional
# [32] = test system: Mus musculus; experiment: Anticonvulsant activity in Swiss albino mouse assessed as maximal electroshock-induced seizures at 350 umol/kg, ip administered 30 mins before electroshock challenge; assay type: functional
# [33] = test system: Mus musculus; experiment: Neurotoxicity in Swiss albino mouse assessed as climbing response to inverted mesh at 350 umol/kg, sc administered measured every 15 mins for 2 hrs by wire mesh grasping test; assay type: toxicity, organism-based; settings: in vivo
# [34] = test system: Mus musculus; experiment: Anticonvulsant activity in Swiss albino mouse assessed as protection against subcutaneous pentylenetetrazol-induced seizures at 350 umol/kg, ip administered 30 mins before pentylenetetrazole challenge measured after 30 mins; assay type: functional
# [35] = test system: Mus musculus; experiment: Neurotoxicity in Swiss albino mouse assessed as effect on hindlimb grip strength at 350 umol/kg, sc administered measured every 15 mins for 2 hrs; assay type: toxicity, organism-based; settings: in vivo
# [36] = test system: Mus musculus; experiment: Anticonvulsant activity in Swiss albino mouse assessed as protection against subcutaneous pentylenetetrazol-induced seizures at 357 umol/kg, ip administered 30 mins before pentylenetetrazole challenge measured after 30 mins relative to stiripentol; assay type: functional
# [37] = test system: Mus musculus; experiment: Anticonvulsant activity in Swiss albino mouse assessed as protection against subcutaneous pentylenetetrazol-induced seizures at 357 umol/kg, ip administered 30 mins before pentylenetetrazole challenge measured after 30 mins; assay type: functional
# [38] = test system: Mus musculus; experiment: Anticonvulsant activity in Swiss albino mouse assessed as maximal electroshock-induced seizures at 357 umol/kg, ip administered 30 mins before electroshock challenge; assay type: functional
# [39] = test system: Mus musculus; experiment: Anticonvulsant activity in Swiss albino mouse assessed as protection against subcutaneous pentylenetetrazol-induced seizures at 370 umol/kg, ip administered 30 mins before pentylenetetrazole challenge measured after 30 mins; assay type: functional
# [40] = test system: Mus musculus; experiment: Anticonvulsant activity in Swiss albino mouse assessed as maximal electroshock-induced seizures at 370 umol/kg, ip administered 30 mins before electroshock challenge; assay type: functional, organism-based
# [41] = test system: Mus musculus; experiment: Anticonvulsant activity in Swiss albino mouse assessed as protection against subcutaneous pentylenetetrazol-induced seizures at 370 umol/kg, ip administered 30 mins before pentylenetetrazole challenge measured after 30 mins relative to stiripentol; assay type: functional
# [42] = test system: Mus musculus; experiment: Neurotoxicity in Swiss albino mouse assessed as effect on hindlimb grip strength at 346 umol/kg, sc administered measured every 15 mins for 2 hrs; assay type: toxicity, organism-based; settings: in vivo
# [43] = test system: Mus musculus; experiment: Neurotoxicity in Swiss albino mouse assessed as climbing response to inverted mesh at 346 umol/kg, sc administered measured every 15 mins for 2 hrs by wire mesh grasping test; assay type: toxicity, organism-based; settings: in vivo
structure (smiles),measurement,setting,value
Cc1ccc(NC(=O)N2N=C(C(C)(C)C)CC2c2ccc3c(c2)OCO3)cc1 (racemic),Activity,[1],inactive
same,Activity,[2],1.48 ratio to stiripentol
same,Activity,[3],83%
CC(C)(C)C(/C=C/c1ccc2c(c1)OCO2)=N/NC(=O)Nc1ccc(F)cc1,Activity,[1],inactive
same,Activity,[2],1.26 ratio to stiripentol
same,Activity,[3],50%
CCC1(c2ccccc2)C(=O)NC(=O)NC1=O [PHENOBARBITAL],Activity,[4],100%
CC(C)(C)C(O)/C=C/c1ccc2c(c1)OCO2 (centres undefined) [STIRIPENTOL],Activity,[5],100%
same,Activity,[6],50%
same,Activity,[7],66%
same,ED50,[8],115 mg/kg
same,Activity,[9],Non-toxic
same,Activity,[10],Non-toxic
same,Activity,[11],83%
same,Activity,[12],66%
same,Activity,[13],83%
same,Activity,[14],33%
same,Activity,[15],16%
same,ED50,[16],277 mg/kg
Cc1ccc(NC(=O)N/N=C(\C=C\c2ccc3c(c2)OCO3)C(C)(C)C)cc1,Activity,[1],inactive
same,Activity,[2],0.98 ratio to stiripentol
same,Activity,[3],16%
CC(C)(C)C1=NN(C(=O)Nc2ccc(Cl)cc2Cl)C(c2ccc3c(c2)OCO3)C1 (racemic),Activity,[17],inactive
same,Activity,[18],33%
same,Activity,[19],1.26%
Cc1ccccc1NC(=O)N/N=C(\C=C\c1ccc2c(c1)OCO2)C(C)(C)C,Activity,[1],inactive
same,Activity,[2],1.48 ratio to stiripentol
same,Activity,[3],83%
CC(C)(C)C(/C=C/c1ccc2c(c1)OCO2)=N/NC(=O)Nc1ccc(Cl)cc1Cl,Activity,[17],16%
same,Activity,[18],33%
same,Activity,[19],1.26%
O=C1NC(=O)C(c2ccccc2)(c2ccccc2)N1 [PHENYTOIN],Activity,[20],inactive
same,Activity,[21],100%
CC(C)(C)C1=NN(C(=O)c2ccc(Cl)cc2)C(c2ccc3c(c2)OCO3)C1 (racemic),Activity,[1],inactive
same,Activity,[2],1.26 ratio to stiripentol
same,Activity,[3],50%
CC(C)(C)C1=NN(C(=O)Nc2ccc(Br)cc2)C(c2ccc3c(c2)OCO3)C1 (racemic),Activity,[22],1.29%
same,Activity,[23],inactive
same,Activity,[24],33%
Cc1ccccc1C(=O)N1N=C(C(C)(C)C)CC1c1ccc2c(c1)OCO2 (racemic),Activity,[25],inactive
same,Activity,[26],inactive
same,Activity,[27],16%
CC(C)(C)C1=NN(C(N)=O)C(c2ccc3c(c2)OCO3)C1 (racemic),Activity,[28],16%
same,Activity,[29],66%
same,Activity,[30],1.11%
CC(C)(C)C1=NN(C(=O)Nc2ccccc2)C(c2ccc3c(c2)OCO3)C1 (racemic),Activity,[25],1.3%
same,Activity,[26],66%
same,Activity,[27],16%
CC(C)(C)C(/C=C/c1ccc2c(c1)OCO2)=N/NC(=O)Nc1ccc(Br)cc1,Activity,[22],1.6%
same,Activity,[23],16%
same,Activity,[24],66%
Cc1ccccc1NC(=O)N1N=C(C(C)(C)C)CC1c1ccc2c(c1)OCO2 (racemic),Activity,[1],inactive
same,Activity,[2],0.95 ratio to stiripentol
same,Activity,[3],16%
CC(C)(C)C1=NN(C(=O)c2ccc(Br)cc2)C(c2ccc3c(c2)OCO3)C1 (racemic),Activity,[31],2.13%
same,Activity,[32],16%
same,ED50,[8],110 mg/kg
same,Activity,[33],Non-toxic
same,Activity,[34],100%
same,Activity,[35],Non-toxic
CC(C)(C)C1=NN(C(=O)c2ccc(Cl)cc2Cl)C(c2ccc3c(c2)OCO3)C1 (racemic),Activity,[36],1.19%
same,Activity,[37],33%
same,Activity,[38],16%
CC(C)(C)C(/C=C/c1ccc2c(c1)OCO2)=N/NC(=O)Nc1ccccc1,Activity,[25],1.3%
same,Activity,[26],66%
same,Activity,[27],inactive
CC(C)(C)C1=NN(C(=O)Nc2ccc(Cl)cc2)C(c2ccc3c(c2)OCO3)C1 (racemic),Activity,[39],33%
same,Activity,[40],inactive
same,Activity,[41],1.15%
Cc1ccc(C(=O)N2N=C(C(C)(C)C)CC2c2ccc3c(c2)OCO3)cc1 (racemic),Activity,[25],1.04%
same,Activity,[26],33%
same,Activity,[27],33%
CC(C)(C)C(/C=C/c1ccc2c(c1)OCO2)=N/NC(N)=O,Activity,[42],Toxic
same,Activity,[28],50%
same,Activity,[29],100%
same,Activity,[43],Toxic
same,Activity,[30],1.42%
same,ED50,[16],87 mg/kg
CC(C)(C)C(/C=C/c1ccc2c(c1)OCO2)=N/NC(=O)Nc1ccc(Cl)cc1,Activity,[39],33%
same,Activity,[40],inactive
same,Activity,[41],1.15%
CC(C)(C)C1=NN(C(=O)Nc2ccc(F)cc2)C(c2ccc3c(c2)OCO3)C1 (racemic),Activity,[1],inactive
same,Activity,[2],1.09 ratio to stiripentol
same,Activity,[3],33%
